The test system of one assay is HCT 116 cells. In words: Cell growth assay (CellTiter-Glo 2.0), HCT 116 MSI-H cell line. Particulars: Homo sapiens, HCT-116, 120 h, read-out: Cell Growth Inhibition GI50 HCT-116. A general note: In ATP-based viability assays light output follows the ATP content of the culture.
The target in assay [1] is hWRN(519-1227)_C-H3CV-GFP-10His (Homo sapiens, UniProt Q14191). In words: Helicase Assay for WRN Inhibition (ATP-dependent, fluorescence based).
A further assay has as its system SW480 cells. The experiment in a line: Cell growth assay (CellTiter-Glo 2.0), SW480 MSS cell line. Particulars: Homo sapiens, SW480, 120 h, read-out: Cell Growth Inhibition GI50 SW480.
The next assay addresses T1, WRN C727 (Homo sapiens, UniProt Q14191).
T1 construct: endogenous in cells; host or cells: OCI-AML2
In words: Target engagement, in vitro (lysate), OCI-AML2. The conditions noted are these: read-out: OCI-AML2 WRN C727 TE50 in vitro (lysate). Type of assay: binding. In outline:
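Percent engagement of WRN C727 is expressed against DMSO-treated samples, measured by PRM mass spectrometry of streptavidin-enriched, probe-tagged tryptic peptides. Compound dose responses preceded probe labelling of solvent-exposed cysteines, in either living OCI-AML2 cells or their lysates.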

Setting [2] is: WRN Helicase IC50, 30 min preincubation with ATP, 30 min reaction.

Structures are written as SMILES. Where two headings read alike, the source gives them in different places. Where only a bound is given, the exact number is not on record here.

Chain of hWRN(519-1227)_C-H3CV-GFP-10His (Q14191 519-1227): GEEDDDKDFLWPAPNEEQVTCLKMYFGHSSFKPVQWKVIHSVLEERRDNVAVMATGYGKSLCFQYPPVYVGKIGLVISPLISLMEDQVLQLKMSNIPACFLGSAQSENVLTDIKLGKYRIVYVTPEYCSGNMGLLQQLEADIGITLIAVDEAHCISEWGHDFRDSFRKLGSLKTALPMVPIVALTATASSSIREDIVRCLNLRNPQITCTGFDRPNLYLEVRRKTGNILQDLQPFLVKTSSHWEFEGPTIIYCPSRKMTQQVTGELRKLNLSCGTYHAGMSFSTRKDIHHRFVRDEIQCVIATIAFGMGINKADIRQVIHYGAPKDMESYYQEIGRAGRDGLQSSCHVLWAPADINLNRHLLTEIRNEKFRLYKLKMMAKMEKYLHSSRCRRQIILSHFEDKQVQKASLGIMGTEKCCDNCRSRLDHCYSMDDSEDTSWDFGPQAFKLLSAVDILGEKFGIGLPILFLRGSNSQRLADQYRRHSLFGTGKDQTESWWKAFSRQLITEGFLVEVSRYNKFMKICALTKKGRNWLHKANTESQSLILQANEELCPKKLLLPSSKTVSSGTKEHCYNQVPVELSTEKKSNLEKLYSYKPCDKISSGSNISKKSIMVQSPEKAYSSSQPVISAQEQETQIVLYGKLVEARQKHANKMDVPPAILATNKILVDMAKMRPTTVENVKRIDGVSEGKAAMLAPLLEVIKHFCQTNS
T1 sequence (Q14191 whole entry): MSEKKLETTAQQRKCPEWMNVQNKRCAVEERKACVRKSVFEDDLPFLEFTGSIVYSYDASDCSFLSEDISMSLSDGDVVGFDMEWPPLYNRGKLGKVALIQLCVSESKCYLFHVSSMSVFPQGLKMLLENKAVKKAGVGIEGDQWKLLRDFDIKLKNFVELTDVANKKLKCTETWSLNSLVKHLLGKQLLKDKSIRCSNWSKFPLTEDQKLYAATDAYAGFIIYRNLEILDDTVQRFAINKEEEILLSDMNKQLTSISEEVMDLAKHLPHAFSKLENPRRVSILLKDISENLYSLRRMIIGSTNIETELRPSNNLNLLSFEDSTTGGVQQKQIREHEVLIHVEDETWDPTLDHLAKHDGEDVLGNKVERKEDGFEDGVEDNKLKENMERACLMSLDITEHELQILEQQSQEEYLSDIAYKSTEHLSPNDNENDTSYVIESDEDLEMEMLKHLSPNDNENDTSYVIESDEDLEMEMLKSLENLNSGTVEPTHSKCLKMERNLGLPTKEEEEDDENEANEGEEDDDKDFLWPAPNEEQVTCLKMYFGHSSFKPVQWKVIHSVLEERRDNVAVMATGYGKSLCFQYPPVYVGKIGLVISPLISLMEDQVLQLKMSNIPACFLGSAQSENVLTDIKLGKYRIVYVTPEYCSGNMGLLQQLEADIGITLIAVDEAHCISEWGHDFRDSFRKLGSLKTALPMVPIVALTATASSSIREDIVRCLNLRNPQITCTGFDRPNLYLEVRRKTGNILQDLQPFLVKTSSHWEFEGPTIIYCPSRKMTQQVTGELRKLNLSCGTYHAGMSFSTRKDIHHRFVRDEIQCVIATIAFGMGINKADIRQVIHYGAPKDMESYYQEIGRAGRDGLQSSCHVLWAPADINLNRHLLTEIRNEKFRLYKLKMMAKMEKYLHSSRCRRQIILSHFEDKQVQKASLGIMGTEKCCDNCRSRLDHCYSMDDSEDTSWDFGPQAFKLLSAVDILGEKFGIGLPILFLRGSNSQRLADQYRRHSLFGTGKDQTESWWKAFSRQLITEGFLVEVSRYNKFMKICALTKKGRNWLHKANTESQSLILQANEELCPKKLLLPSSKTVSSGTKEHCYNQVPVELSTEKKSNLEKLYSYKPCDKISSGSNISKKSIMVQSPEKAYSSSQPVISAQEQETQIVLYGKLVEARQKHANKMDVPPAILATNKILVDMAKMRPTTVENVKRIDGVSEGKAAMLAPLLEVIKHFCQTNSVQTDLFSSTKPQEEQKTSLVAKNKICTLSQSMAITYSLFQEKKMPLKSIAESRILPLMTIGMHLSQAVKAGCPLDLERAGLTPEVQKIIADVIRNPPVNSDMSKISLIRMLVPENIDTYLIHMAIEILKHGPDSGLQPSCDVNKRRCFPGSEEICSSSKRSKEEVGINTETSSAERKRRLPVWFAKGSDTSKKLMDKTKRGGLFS

The GI50 is the concentration that inhibits growth by half. `C[C@@H](/C=C/S(C)(=O)=O)NC(=O)c1cnc(C2CC3(CC3)C2)nc1Oc1ccccc1` [Example 55, (S,E)-N-(4-(methylsulfonyl)but-3-en-2-yl)-4-phenoxy-2-(spiro[2.3]hexan-5-yl)pyrimidine-5-carboxamide]: the GI50 was 150 nM in the assay on HCT 116 cells and 6200 nM with SW480 cells. The IC50 in assay [1] (setting [2]) came to 910 nM; on WRN C727, 8680 nM.

With `CC(C)(C)c1ncc(C(=O)N2CC(=CS(=O)(=O)C3CCOCC3)C2)c(Oc2ccccc2)n1` [Example 62, (2-(tert-butyl)-4-phenoxypyrimidin-5-yl)(3-(((tetrahydro-2H-pyran-4-yl)sulfonyl)methylene)azetidin-1-yl)methanone], the GI50 in the assay on HCT 116 cells is 265 nM; in the assay on SW480 cells it was 13200 nM. Further, the results for the IC50 (in assay [1]; at WRN C727) were 650 nM and 4090 nM, respectively.

As for `COC[C@@H](/C=C/S(C)(=O)=O)NC(=O)c1cnc(C(C)(C)C)nc1Oc1ccccc1` [Example 63, (R,E)-2-(tert-butyl)-N-(1-methoxy-4-(methylsulfonyl)but-3-en-2-yl)-4-phenoxypyrimidine-5-carboxamide], the GI50 with HCT 116 cells amounted to 30.6 nM; in the assay on SW480 cells it was 31000 nM. In addition, the IC50 stood at 87.9 nM in assay [1] (setting [2]) and 500 nM on WRN C727.

In the case of `COC[C@H](/C=C/S(C)(=O)=O)NC(=O)c1cnc(C(C)(C)C)nc1Oc1ccccc1` [Example 64, (S,E)-2-(tert-butyl)-N-(1-methoxy-4-(methylsulfonyl)but-3-en-2-yl)-4-phenoxypyrimidine-5-carboxamide], the figures for the GI50 with HCT 116 cells and in the assay on SW480 cells were 2300 nM and 36000 nM, respectively. The results for the IC50 (in assay [1] (setting [2]); on WRN C727) were 8600 nM and > 100000 nM, respectively.

In the case of `CC(C)(C)c1ncc(C(=O)N[C@H](/C=C/S(C)(=O)=O)CC2CC2)c(Oc2ccccc2)n1` [Example 65, (S,E)-2-(tert-butyl)-N-(1-cyclopropyl-4-(methylsulfonyl)but-3-en-2-yl)-4-phenoxypyrimidine-5-carboxamide], the GI50 in the assay with HCT 116 cells worked out at 87 nM; in the assay with SW480 cells, 25400 nM. For the same molecule, the IC50 in assay [1] (setting [2]) came out at 300 nM; on WRN C727, 1170 nM.

For `CC(C)(C)c1ncc(C(=O)N[C@H](/C=C/S(C)(=O)=O)C2CCC2)c(Oc2ccccc2)n1` [Example 66, (S,E)-2-(tert-butyl)-N-(1-cyclobutyl-3-(methylsulfonyl)allyl)-4-phenoxypyrimidine-5-carboxamide], the values for the GI50 with HCT 116 cells and in the assay on SW480 cells were 30.2 nM and 21800 nM, respectively. Moreover, the results for the IC50 (in assay [1] (setting [2]); on WRN C727) were 113 nM and 380 nM, respectively.

Consider `CC(C)(C)c1ncc(C(=O)N[C@H](/C=C/S(C)(=O)=O)C2CC(F)(F)C2)c(Oc2ccccc2)n1` [Example 67, (S,E)-2-(tert-butyl)-N-(1-(3,3-difluorocyclobutyl)-3-(methylsulfonyl)allyl)-4-phenoxypyrimidine-5-carboxamide], for which the GI50 in the assay on HCT 116 cells was determined as 43.9 nM; in the assay on SW480 cells, 9780 nM. Further, the IC50 came out at 140 nM in assay [1] (setting [2]) and 500 nM at WRN C727.

In the case of `CSC[C@@H](/C=C/S(C)(=O)=O)NC(=O)c1cnc(C(C)(C)C)nc1Oc1ccccc1` [Example 68, (R,E)-2-(tert-butyl)-N-(4-(methylsulfonyl)-1-(methylthio)but-3-en-2-yl)-4-phenoxypyrimidine-5-carboxamide], the GI50 in the assay on HCT 116 cells came to 230 nM; in the assay with SW480 cells, 31400 nM. The IC50 turned out to be 180 nM in assay [1] (setting [2]) and 1000 nM at WRN C727.

As to `CO[C@H](C)[C@@H](/C=C/S(C)(=O)=O)NC(=O)c1cnc(C(C)(C)C)nc1Oc1ccccc1` [Example 69, 2-(tert-butyl)-N-((3R,4R,E)-4-methoxy-1-(methylsulfonyl)pent-1-en-3-yl)-4-phenoxypyrimidine-5-carboxamide], the results for the GI50 in the assay with HCT 116 cells and in the assay with SW480 cells were 1220 nM and 51600 nM, respectively. Also, the IC50 in assay [1] (setting [2]) was determined as 3390 nM; at WRN C727, 11000 nM.

On to `CC(C)(C)c1ncc(C(=O)N[C@H](/C=C/S(C)(=O)=O)C2CCOCC2)c(Oc2ccccc2)n1` [Example 70, (S,E)-2-(tert-butyl)-N-(3-(methylsulfonyl)-1-(tetrahydro-2H-pyran-4-yl)allyl)-4-phenoxypyrimidine-5-carboxamide], for which the GI50 with HCT 116 cells is 130 nM; with SW480 cells it was > 58700 nM. Also, the values for the IC50 (in assay [1] (setting [2]); on WRN C727) were 240 nM and 790 nM, respectively.

As for `CC(C)(C)c1ncc(C(=O)N[C@H](/C=C/S(C)(=O)=O)C2CCC(F)(F)CC2)c(Oc2ccccc2)n1` [Example 72, (S,E)-2-(tert-butyl)-N-(1-(4,4-difluorocyclohexyl)-3-(methylsulfonyl)allyl)-4-phenoxypyrimidine-5-carboxamide], the GI50 was 46.7 nM in the assay on HCT 116 cells and 45200 nM in the assay with SW480 cells. Also, the IC50 amounted to 160 nM in assay [1] (setting [2]) and 600 nM on WRN C727.

In the case of `CC(C)(C)c1ncc(C(=O)N[C@H](/C=C/S(C)(=O)=O)CC(F)F)c(Oc2ccccc2)n1` [Example 73, (S,E)-2-(tert-butyl)-N-(5,5-difluoro-1-(methylsulfonyl)pent-1-en-3-yl)-4-phenoxypyrimidine-5-carboxamide], the GI50 is 300 nM in the assay with HCT 116 cells and 16000 nM in the assay with SW480 cells. Besides, the figures for the IC50 (in assay [1] (setting [2]); at WRN C727) were 150 nM and 470 nM, respectively.

As to `CS(=O)(=O)/C=C/CNC(=O)c1cnc(C2CCCCC2)nc1Oc1ccccc1` [Example 76, (E)-2-cyclohexyl-N-(3-(methylsulfonyl)allyl)-4-phenoxypyrimidine-5-carboxamide], the GI50 is 3400 nM in the assay on HCT 116 cells and > 10000 nM with SW480 cells. Also, the IC50 was 4900 nM in assay [1] (setting [2]) and 50000 nM on WRN C727.

Take `C[C@@H](/C=C/S(C)(=O)=O)NC(=O)c1cnc(C2CCCO2)nc1Oc1ccccc1` (stereo partly drawn) [Example 78, N—((S,E)-4-(methylsulfonyl)but-3-en-2-yl)-4-phenoxy-2-(tetrahydrofuran-2-yl)pyrimidine-5-carboxamide]: the GI50 in the assay on HCT 116 cells was 2600 nM; in the assay with SW480 cells it was > 10000 nM. Further, the IC50 in assay [1] (setting [2]) is 9330 nM; on WRN C727, 50000 nM.

On to `CS(=O)(=O)/C=C/[C@@H](NC(=O)c1cnc(C(F)(F)F)nc1Oc1ccccc1)C1CC1` [Example 82, (S,E)-N-(1-cyclopropyl-3-(methylsulfonyl)allyl)-4-phenoxy-2-(trifluoromethyl)pyrimidine-5-carboxamide], for which the GI50 in the assay with HCT 116 cells was found to be 280 nM; in the assay on SW480 cells, 20000 nM. For the same molecule, the IC50 in assay [1] (setting [2]) came out at 550 nM; at WRN C727 it was 700 nM.

In the case of `C[C@@H](/C=C/S(C)(=O)=O)NC(=O)c1cnc(C(F)(F)C(F)(F)F)nc1Oc1ccccc1` [Example 83, (S,E)-N-(4-(methylsulfonyl)but-3-en-2-yl)-2-(perfluoroethyl)-4-phenoxypyrimidine-5-carboxamide], the GI50 is 202 nM with HCT 116 cells and 19000 nM with SW480 cells. Besides, the IC50 in assay [1] (setting [2]) worked out at 238 nM; at WRN C727, 380 nM.

Regarding `COC[C@@H](/C=C/S(C)(=O)=O)NC(=O)c1cnc(C(F)(F)C(F)(F)F)nc1Oc1ccccc1` [Example 85, (R,E)-N-(1-methoxy-4-(methylsulfonyl)but-3-en-2-yl)-2-(perfluoroethyl)-4-phenoxypyrimidine-5-carboxamide], the GI50 in the assay on HCT 116 cells turned out to be 48.4 nM; in the assay on SW480 cells it was 11500 nM. Moreover, the results for the IC50 (in assay [1] (setting [2]); on WRN C727) were 120 nM and 220 nM, respectively.

For the molecule `CN(C)C(=O)C[C@@H](/C=C/S(C)(=O)=O)NC(=O)c1cnc(C(C)(F)F)nc1Oc1ccccc1` [Example 92, (S,E)-2-(1,1-difluoroethyl)-N-(5-(dimethylamino)-1-(methylsulfonyl)-5-oxopent-1-en-3-yl)-4-phenoxypyrimidine-5-carboxamide], the GI50 in the assay on HCT 116 cells worked out at 245 nM; with SW480 cells, 43000 nM. For the same molecule, the results for the IC50 (in assay [1] (setting [2]); at WRN C727) were 1100 nM and 10000 nM, respectively.

For the molecule `CO[C@@H](C)[C@@H](/C=C/S(C)(=O)=O)NC(=O)c1cnc(C(C)(F)F)nc1Oc1ccccc1` [Example 93, 2-(1,1-difluoroethyl)-N-((3R,4S,E)-4-methoxy-1-(methylsulfonyl)pent-1-en-3-yl)-4-phenoxypyrimidine-5-carboxamide], the GI50 in the assay on HCT 116 cells stood at 128 nM; with SW480 cells it was 87500 nM. Also, the IC50 turned out to be 460 nM in assay [1] (setting [2]) and 4190 nM on WRN C727.

In the case of `CC(C)(C)OC[C@@H](/C=C/S(C)(=O)=O)NC(=O)c1cnc(C(C)(F)F)nc1Oc1ccccc1` [Example 96, (R,E)-N-(1-(tert-butoxy)-4-(methylsulfonyl)but-3-en-2-yl)-2-(1,1-difluoroethyl)-4-phenoxypyrimidine-5-carboxamide], the figures for the GI50 in the assay on HCT 116 cells and with SW480 cells were 36.9 nM and 27500 nM, respectively. Further, the IC50 was 200 nM in assay [1] (setting [2]) and 400 nM on WRN C727.

As for `C[C@@H](/C=C/S(C)(=O)=O)NC(=O)c1cnc(C2(F)CC2)nc1Oc1ccccc1` [Example 99, (S,E)-2-(1-fluorocyclopropyl)-N-(4-(methylsulfonyl)but-3-en-2-yl)-4-phenoxypyrimidine-5-carboxamide], the GI50 is 740 nM in the assay with HCT 116 cells and 40000 nM in the assay on SW480 cells. Further, the values for the IC50 (in assay [1] (setting [2]); at WRN C727) were 2000 nM and 10000 nM, respectively.

Take `C[C@@H](/C=C/S(C)(=O)=O)NC(=O)c1cnc(C2(C(F)(F)F)CC2)nc1Oc1ccccc1` [Example 101, (S,E)-N-(4-(methylsulfonyl)but-3-en-2-yl)-4-phenoxy-2-(1-(trifluoromethyl)cyclopropyl)pyrimidine-5-carboxamide]: the GI50 with HCT 116 cells stood at 374 nM; in the assay with SW480 cells, 7860 nM. Further, the IC50 stood at 1100 nM in assay [1] (setting [2]) and 6030 nM at WRN C727.

The record behind these values is US20250188040A1, “PHARMACEUTICAL COMPOSITIONS COMPRISING WRN HELICASE INHIBITORS” (Vividion Therapeutics, Inc., priority 2022, published 2025).
